Test results from patent publication US20090018134A1, “Compounds - 945” (AstraZeneca AB, priority 2007, published 2009).

Each compound was assayed against T1, mTOR (Homo sapiens, UniProt P42345) (assay: In Vitro mTOR Kinase Assay (Echo), Test (a)(ii)). Settings: table of enzyme assay Test (a)(ii); read-out: Test (a)(ii) IC50.
T1 construct: FLAG; made in house
Format: biochemical
Outline: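 FLAG-tagged human mTOR truncation (residues 1362-2549) expressed in HEK293 cells and FLAG-purified. Compounds dispensed acoustically, reaction 2 h at room temperature, stopped with EDTA. Phosphorylation of biotinylated peptide detected by AlphaScreen with anti-p70 S6K (T389) antibody overnight; IC50 reported.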

T1 sequence (P42345 1362-2549): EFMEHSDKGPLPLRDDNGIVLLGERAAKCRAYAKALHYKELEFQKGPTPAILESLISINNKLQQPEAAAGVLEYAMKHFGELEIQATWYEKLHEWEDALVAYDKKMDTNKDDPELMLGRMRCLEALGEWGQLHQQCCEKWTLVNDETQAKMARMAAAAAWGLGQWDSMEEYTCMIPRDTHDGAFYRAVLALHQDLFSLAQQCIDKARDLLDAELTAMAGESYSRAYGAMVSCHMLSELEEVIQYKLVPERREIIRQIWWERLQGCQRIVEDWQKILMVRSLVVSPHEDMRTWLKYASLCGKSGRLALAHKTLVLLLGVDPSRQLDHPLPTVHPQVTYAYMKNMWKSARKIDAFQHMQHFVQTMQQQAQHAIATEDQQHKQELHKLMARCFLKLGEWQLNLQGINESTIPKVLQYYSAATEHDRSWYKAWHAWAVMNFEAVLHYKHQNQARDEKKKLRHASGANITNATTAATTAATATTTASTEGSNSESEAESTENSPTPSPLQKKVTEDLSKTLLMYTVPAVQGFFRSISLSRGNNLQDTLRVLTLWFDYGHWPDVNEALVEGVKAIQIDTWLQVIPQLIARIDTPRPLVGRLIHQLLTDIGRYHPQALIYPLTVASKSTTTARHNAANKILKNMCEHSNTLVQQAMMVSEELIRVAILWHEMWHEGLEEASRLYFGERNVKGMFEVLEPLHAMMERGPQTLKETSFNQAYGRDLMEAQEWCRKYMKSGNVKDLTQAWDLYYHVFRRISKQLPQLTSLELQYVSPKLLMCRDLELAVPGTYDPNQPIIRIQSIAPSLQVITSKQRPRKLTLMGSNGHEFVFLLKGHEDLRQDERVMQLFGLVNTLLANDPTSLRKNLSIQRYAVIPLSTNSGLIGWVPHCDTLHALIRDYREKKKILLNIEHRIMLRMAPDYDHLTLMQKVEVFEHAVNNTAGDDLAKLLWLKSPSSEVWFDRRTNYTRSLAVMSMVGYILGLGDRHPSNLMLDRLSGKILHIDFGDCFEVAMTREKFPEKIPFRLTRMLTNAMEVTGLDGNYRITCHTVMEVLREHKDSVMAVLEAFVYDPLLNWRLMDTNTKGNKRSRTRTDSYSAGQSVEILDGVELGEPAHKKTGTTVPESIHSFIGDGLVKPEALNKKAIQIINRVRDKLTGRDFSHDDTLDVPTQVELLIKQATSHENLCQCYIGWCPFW

SMILES | IC50 [nM]
C[C@H]1COCCN1c1cc(C2(S(=O)(=O)c3cc(F)cc(F)c3)CCN(Cc3ccccc3)CC2)nc(-c2ccc(NC(=O)NC3CC3)cc2)n1 [Example 22, 1-[4-[4-[1-Benzyl-4-(3,5-difluorophenyl)sulfonylpiperidin-4-yl]-6-[(3S)-3-methylmorpholin-4-yl]pyrimidin-2-yl]phenyl]-3-cyclopropylurea] | 503
CNC(=O)Nc1ccc(-c2nc(N3CCOC[C@@H]3C)cc(C3(S(C)(=O)=O)CCOCC3)n2)cc1 [Example 23a, 3-methyl-1-[4-[4-[(3S)-3-methylmorpholin-4-yl]-6-(4-methylsulfonyloxan-4-yl)pyrimidin-2-yl]phenyl]urea] | 4.59
C[C@H]1COCCN1c1cc(C2(S(C)(=O)=O)CCOCC2)nc(-c2ccc(NC(=O)NCCN(C)C)cc2)n1 [Example 23b, 3-(2-dimethylaminoethyl)-1-[4-[4-[(3S)-3-methylmorpholin-4-yl]-6-(4-methylsulfonyloxan-4-yl)pyrimidin-2-yl]phenyl]urea] | 197
C[C@H]1COCCN1c1cc(C2(S(C)(=O)=O)CCOCC2)nc(-c2ccc(NC(=O)NCCO)cc2)n1 [Example 23c, 3-(2-hydroxyethyl)-1-[4-[4-[(3S)-3-methylmorpholin-4-yl]-6-(4-methylsulfonyloxan-4-yl)pyrimidin-2-yl]phenyl]urea] | 0.831
C[C@H]1COCCN1c1cc(C2(S(C)(=O)=O)CCOCC2)nc(-c2ccc(NC(=O)Nc3cnn(C)c3)cc2)n1 [Example 23d, 1-[4-[4-[(3S)-3-methylmorpholin-4-yl]-6-(4-methylsulfonyloxan-4-yl)pyrimidin-2-yl]phenyl]-3-(1-methylpyrazol-4-yl)urea] | 5.34
C[C@H]1COCCN1c1cc(C2(S(=O)(=O)C3CC3)CCOCC2)nc(-c2ccc(NC(=O)NC3CC3)cc2)n1 [Example 23e, 3-cyclopropyl-1-[4-[4-(4-cyclopropylsulfonyloxan-4-yl)-6-[(3S)-3-methylmorpholin-4-yl]pyrimidin-2-yl]phenyl]urea] | 8.76
CNC(=O)Nc1ccc(-c2nc(N3CCOC[C@@H]3C)cc(C3(S(=O)(=O)C4CC4)CCOCC3)n2)cc1 [Example 23f, 1-[4-[4-(4-cyclopropylsulfonyloxan-4-yl)-6-[(3S)-3-methylmorpholin-4-yl]pyrimidin-2-yl]phenyl]-3-methylurea] | 19.9
C[C@H]1COCCN1c1cc(C2(S(=O)(=O)C3CC3)CCOCC2)nc(-c2ccc(NC(=O)NCCN(C)C)cc2)n1 [Example 23g, 1-[4-[4-(4-cyclopropylsulfonyloxan-4-yl)-6-[(3S)-3-methylmorpholin-4-yl]pyrimidin-2-yl]phenyl]-3-(2-dimethylaminoethyl)urea] | 1210
C[C@H]1COCCN1c1cc(C2(S(=O)(=O)C3CC3)CCOCC2)nc(-c2ccc(NC(=O)NCCO)cc2)n1 [Example 23h, 1-[4-[4-(4-cyclopropylsulfonyloxan-4-yl)-6-[(3S)-3-methylmorpholin-4-yl]pyrimidin-2-yl]phenyl]-3-(2-hydroxyethyl)urea] | 8.08
C[C@H]1COCCN1c1cc(C2(S(=O)(=O)C3CC3)CCOCC2)nc(-c2ccc(NC(=O)Nc3cnn(C)c3)cc2)n1 [Example 23i, 1-[4-[4-(4-cyclopropylsulfonyloxan-4-yl)-6-[(3S)-3-methylmorpholin-4-yl]pyrimidin-2-yl]phenyl]-3-(1-methylpyrazol-4-yl)urea] | 25.4
CNC(=O)Nc1ccc(-c2nc(N3CCOC[C@@H]3C)cc(C3(S(=O)(=O)c4ccc(Cl)cc4)CCOCC3)n2)cc1 [Example 23j, 1-[4-[4-[4-(4-chlorophenyl)sulfonyloxan-4-yl]-6-[(3S)-3-methylmorpholin-4-yl]pyrimidin-2-yl]phenyl]-3-methylurea] | 31.4
C[C@H]1COCCN1c1cc(C2(S(=O)(=O)c3ccc(Cl)cc3)CCOCC2)nc(-c2ccc(NC(=O)NCCN(C)C)cc2)n1 [Example 23k, 1-[4-[4-[4-(4-chlorophenyl)sulfonyloxan-4-yl]-6-[(3S)-3-methylmorpholin-4-yl]pyrimidin-2-yl]phenyl]-3-(2-dimethylaminoethyl)urea] | 1140
C[C@H]1COCCN1c1cc(C2(S(=O)(=O)c3ccc(Cl)cc3)CCOCC2)nc(-c2ccc(NC(=O)NCCO)cc2)n1 [Example 23l, 1-[4-[4-[4-(4-chlorophenyl)sulfonyloxan-4-yl]-6-[(3S)-3-methylmorpholin-4-yl]pyrimidin-2-yl]phenyl]-3-(2-hydroxyethyl)urea] | 8.88
C[C@H]1COCCN1c1cc(C2(S(=O)(=O)c3ccc(Cl)cc3)CCOCC2)nc(-c2ccc(NC(=O)Nc3cnn(C)c3)cc2)n1 [Example 23m, 1-[4-[4-[4-(4-chlorophenyl)sulfonyloxan-4-yl]-6-[(3S)-3-methylmorpholin-4-yl]pyrimidin-2-yl]phenyl]-3-(1-methylpyrazol-4-yl)urea] | 57.7
C[C@H]1COCCN1c1cc(C2(S(=O)(=O)c3ccc(Cl)cc3)CCOCC2)nc(-c2ccc(NC(=O)NC3CC3)cc2)n1 [Example 24, 1-[4-[4-[4-(4-Chlorophenyl)sulfonyloxan-4-yl]-6-[(3S)-3-methylmorpholin-4-yl]pyrimidin-2-yl]phenyl]-3-cyclopropylurea] | 5.17
Cc1csc(S(=O)(=O)C2(c3cc(N4CCOC[C@@H]4C)nc(-c4ccc(NC(=O)NC5CC5)cc4)n3)CC2)n1 [Example 25, 3-Cyclopropyl-1-[4-[4-[(3S)-3-methylmorpholin-4-yl]-6-[1-[(4-methyl-1,3-thiazol-2-yl)sulfonyl]cyclopropyl]pyrimidin-2-yl]phenyl]urea] | 1.55
Cc1csc(S(=O)(=O)C2(c3cc(N4CCOC[C@@H]4C)nc(-c4ccc(NC(=O)NC5CCC5)cc4)n3)CC2)n1 [Example 25a, 3-cyclobutyl-1-[4-[4-[(3S)-3-methylmorpholin-4-yl]-6-[1-[(4-methyl-1,3-thiazol-2-yl)sulfonyl]cyclopropyl]pyrimidin-2-yl]phenyl]urea] | 2.24
Cc1csc(S(=O)(=O)C2(c3cc(N4CCOC[C@@H]4C)nc(-c4ccc(NC(=O)Nc5ccccn5)cc4)n3)CC2)n1 [Example 25b, 1-[4-[4-[(3S)-3-methylmoprholin-4-yl]-6-[1-[(4-methyl-1,3-thiazol-2-yl)sulfonyl]cyclopropyl]pyrimidin-2-yl]phenyl]-3-pyridin-2-ylurea] | 0.817
Cc1csc(S(=O)(=O)C2(c3cc(N4CCOC[C@@H]4C)nc(-c4ccc(NC(=O)NCC(C)C)cc4)n3)CC2)n1 [Example 25c, 1-[4-[4-[(3S)-3-methylmorpholin-4-yl]-6-[1-[(4-methyl-1,3-thiazol-2-yl)sulfonyl]cyclopropyl]pyrimidin-2-yl]phenyl]-3-(2-methylpropyl)urea] | 3.85
CCNC(=O)Nc1ccc(-c2nc(N3CCOC[C@@H]3C)cc(C3(S(=O)(=O)c4nc(C)cs4)CC3)n2)cc1 [Example 25e, 1-ethyl-3-[4-[4-[(3S)-3-methylmorpholin-4-yl]-6-[1-[(4-methyl-1,3-thiazol-2-yl)sulfonyl]cyclpropyl]pyrimidin-2-yl]phenyl]urea] | 0.277
Cc1csc(S(=O)(=O)C2(c3cc(N4CCOC[C@@H]4C)nc(-c4ccc(NC(=O)NCCN(C)C)cc4)n3)CC2)n1 [Example 25f, 3-(2-dimethylaminoethyl)-1-[4-[4-[(3S)-3-methylmorpholin-4-yl]-6-[1-[(4-methyl-1,3-thiazol-2-yl)sulfonyl]cyclopropyl]pyrimidin-2-yl]phenyl]urea] | 54.7
CCCNC(=O)Nc1ccc(-c2nc(N3CCOC[C@@H]3C)cc(C3(S(=O)(=O)c4nc(C)cs4)CC3)n2)cc1 [Example 25h, 3-[4-[4-[(3S)-3-methylmorpholin-4-yl]-6-[1-[(4-methyl-1,3-thiazol-2-yl)sulfonyl]cyclopropyl]pyrimidin-2-yl]phenyl]-1-propylurea] | 0.993
CNC(=O)Nc1ccc(-c2nc(N3CCOC[C@@H]3C)cc(C3(S(=O)(=O)c4nc(C)cs4)CC3)n2)cc1 [Example 25i, 3-methyl-1-[4-[4-[(3S)-3-methylmorpholin-4-yl]-6-[1-[(4-methyl-1,3-thiazol-2-yl)sulfonyl]cyclopropyl]pyrimidin-2-yl]phenyl]urea] | 1
Cc1csc(S(=O)(=O)C2(c3cc(N4CCOC[C@@H]4C)nc(-c4ccc(NC(=O)Nc5ccc(C(F)(F)F)cc5)cc4)n3)CC2)n1 [Example 25j, 1-[4-[4-[(3S)-3-methylmorpholin-4-yl]-6-[1-[(4-methyl-1,3-thiazol-2-yl)sulfonyl]cyclopropyl]pyrimidin-2-yl]phenyl]-3-[4-(trifluoromethyl)phenyl]urea] | 5.76
Cc1csc(S(=O)(=O)C2(c3cc(N4CCOC[C@@H]4C)nc(-c4ccc(NC(=O)NC(C)(C)CO)cc4)n3)CC2)n1 [Example 25k, 3-(1-hydroxy-2-methylpropan-2-yl)-1-[4-[4-[(3S)-3-methylmorpholin-4-yl]-6-[1-[(4-methyl-1,3-thiazol-2-yl)sulfonyl]cyclopropyl]pyrimidin-2-yl]phenyl]urea] | 2.92
Cc1csc(S(=O)(=O)C2(c3cc(N4CCOC[C@@H]4C)nc(-c4ccc(NC(=O)NCCCO)cc4)n3)CC2)n1 [Example 25l, 3-(3-hydroxypropyl)-1-[4-[4-[(3S)-3-methylmorpholin-4-yl]-6-[1-[(4-methyl-1,3-thiazol-2-yl)sulfonyl]cyclopropyl]pyrimidin-2-yl]phenyl]urea] | 0.956
Cc1csc(S(=O)(=O)C2(c3cc(N4CCOC[C@@H]4C)nc(-c4ccc(NC(=O)Nc5cnn(C)c5)cc4)n3)CC2)n1 [Example 25m, 1-[4-[4-[(3S)-3-methylmorpholin-4-yl]-6-[1-[(4-methyl-1,3-thiazol-2-yl)sulfonyl]cyclopropyl]pyrimidin-2-yl]phenyl]-3-(1-methylpyrazol-4-yl)urea] | 0.25
C[C@H]1COCCN1c1cc(C2(S(=O)(=O)C3CCCCC3)CC2)nc(-c2ccc(NC(=O)NC3CC3)cc2)n1 [Example 26, 1-[4-[4-(1-Cyclohexylsulfonylcyclopropyl)-6-[(3S)-3-methylmorpholin-4-yl]pyrimidin-2-yl]phenyl]-3-cyclopropylurea] | 6.05
